# Test results published in patent US20260048052A1, “METHODS OF TREATING TENOSYNOVIAL GIANT CELL TUMORS” (Deciphera Pharmaceuticals, LLC, priority 2023, published 2026).
# Values joined by “and” are separate entries in the source; they are usually repeats but may differ in a detail not shown here. Equal values may be shown once.
# Legend:
# [1] = system: patients with TGCT not amenable to surgery; experiment: Phase 3, randomized, placebo-controlled, double-blind study of vimseltinib in patients with TGCT: efficacy; format: in vivo, human
# Procedure: This study is a two-part, randomized, double-blind, placebo-controlled study to assess the efficacy and safety of vimseltinib in patients with TGCT not amenable to surgery with no prior anti-CSF1/CSF1R therapy (prior therapy with imatinib or nilotinib allowed). In Part 1, patients (n=123) were randomized two-to-one to receive either 30 mg twice weekly of vimseltinib (n=83) or placebo (n=40) for 24 weeks. Vimseltinib or matching placebo was administered orally each week on day 1 and day 5 (±1 day) at approximately the same time of day on an empty stomach, with ≥24 hours between doses. An MRI of the affected joint was performed at screening, cycle 4 day 1 (week 13; ±7 days), and at the end of Part 1. Part 2 is an ongoing open-label study, in which patients from both the vimseltinib and placebo arms receive treatment with vimseltinib.
# The primary endpoint of the study is the objective response rate (ORR) at Week 25 as measured by Response Evaluation Criteria in Solid Tumors (RECIST) version 1.1 by blinded independent radiologic review (IRR). Key secondary endpoints included the objective response rate at Week 25 by IRR per tumor volume score (TVS), active range of motion (ROM) at Week 25, PROMIS physical function (PROMIS-PF) score, worst stiffness numeric rating scale (NRS) score at Week 25, EQ-visual analogue scale (EQ-VAS) score at Week 25, and greater than or equal to 30% reduction in Brief Pain Inventory (BPI) in worst pain and less than 30% increase in narcotic use (BPI-30) at Week 25. Other secondary endpoints included duration of response (DOR) and safety.
# Eligibility Criteria: Eligible patients were aged ≥18 years with a histologically confirmed diagnosis of TGCT for which surgical resection would potentially cause worsening functional limitation or severe morbidity. Patients had at least 1 measurable lesion ≥2 cm using Response Evaluation Criteria in Solid Tumors version 1.1 (RECIST v1.1), as assessed from magnetic resonance imaging (MRI) by a central radiologist.
# Patients were excluded for receiving previous systemic therapy targeting CSF1 or CSF1R including vimseltinib; previous therapy with imatinib and/or nilotinib was allowed. Patients who received any therapy for TGCT (including investigational therapy) during screening, had major surgery 14 days prior to the first dose of study drug, or participated in a non-TGCT investigational drug study within 30 days of screening were also excluded.
# Tumor volume score (TVS) is a semiquantitative magnetic resonance imaging scoring system that describes tumor mass. It is based on 10% increments of the estimated volume of the maximally distended involved synovial cavity or tendon sheath. Scores ranged from 0 to 10, and a tumor that was equal in volume to that of a maximally distended synovial cavity or tendon sheath was scored a 10; a score of 0 indicated no evidence of a tumor.
# Complete response denoted disappearance of all tumor(s). Partial response was at least a 50% reduction from baseline in TVS. Progressive disease was at least a 30% increase in TVS from baseline. Stable disease was neither a sufficient decrease to qualify for partial response nor sufficient increase to qualify for progressive disease, taking the nadir as a reference. Response was considered not evaluable if the TVS could not be assessed for reasons such as inadequate or missing imaging.
# Active range of motion (ROM; in degrees) was assessed using a goniometer and was normalized using a reference standard provided by the American Medical Association to compute the relative active ROM. In joints where more than one motion was measured, the motion with the smallest relative ROM value (worst) was used for evaluating subsequent changes in relative active ROM.
# Response for PROMIS-PF, worst stiffness NRS, and EQ-VAS was a change from baseline ≥3, ≤−2, and ≥7, respectively. BPI worst pain response was defined as a ≥30% reduction in worst pain without a ≥30% increase in narcotic analgesic use. […]
# patients with TGCT = conditions: human, in vivo
# Procedure: The safety population includes patients who received at least 1 dose of study drug. Severity was assessed by the investigator according to the toxicity grade described in the National Cancer Institute CTCAE v4.03 (grade 1 [mild] to grade 5 [death]). Time denotes the earliest start date of the worst grade for each TEAE; if the highest grade TEAE occurred in the first 12 months of treatment, lower grade events that occurred after 12 months were not captured in this figure. Key: AST, aspartate aminotransferase; COVID-19, coronavirus disease 2019; CPK, creatine phosphokinase; CTCAE v4.03, Common Terminology Criteria for Adverse Events version 4.03; LDH, lactate dehydrogenase; TEAE, treatment-emergent adverse event.
# This is a Phase 1/2 open-label, multicenter study evaluating the safety and efficacy of vimseltinib in patients with TGCT. In Phase 1, 32 patients enrolled in three cohorts across multiple doses. In Phase 2, 66 patients enrolled in two cohorts at the recommended Phase 2 dose of 30 mg twice weekly: Cohort A (n=46) in TGCT patients with no prior anti-CSF1/CSF1R therapy (prior therapy with imatinib or nilotinib allowed); and Cohort B (n=20) in TGCT patients with prior anti-CSF1/CSF1R therapy (prior therapy with imatinib or nilotinib alone not eligible).
# [2] = 30 mg twice weekly, ITT N=83, Week 25
# [3] = 30 mg twice weekly, ITT, Week 25
compound,measurement,setting,value
"Cc1nc(-c2cnc(NC(C)C)n(C)c2=O)ccc1Oc1ccnc(-c2cnn(C)c2)c1 [Vimseltinib, 2-(isopropylamino)-3-methyl-5-(6-methyl-5-((2-(1-methyl-IH-pyrazol-4-yl)pyridin-4-yl)oxy)pyridin-2-yl)pyrimidin-4(3H)-one]","clinical benefit (CR+PR+SD), best percentage change in target lesions by IRR","[1]; 30 mg twice weekly, FIG. 7A",Nearly all patients receiving vimseltinib experienced clinical benefit
same,BPI-30 Response in Worst Pain,[1]; [2],40 (48) n (%)
same,"CFB in EQ-VAS at Week 25, LS Mean",[1]; [2],13.5
same,"CFB in Worst Stiffness NRS at Week 25, LS Mean",[1]; [2],−2.1
same,CR by IRR per TVS,[1]; [2],4 (5%) n (%)
same,Complete Response (CR) by IRR per RECIST 1.1,[1]; [2],4 (5%) n (%)
same,ORR at Week 25 by IRR per RECIST 1.1,[1]; [2],33 (40%) n (%)
same,ORR at Week 25 by IRR per RECIST v1.1,[1]; [2],40%
same,PR by IRR per TVS,[1]; [2],52 (63%) n (%)
same,Partial Response (PR) by IRR per RECIST 1.1,[1]; [2],29 (35%) n (%)
same,Stable disease (SD) by IRR per RECIST 1.1,[1]; [2],42 (51%) n (%)
same,"CFB in EQ-VAS at Week 25, Difference in LS Mean vs placebo",[1]; [3],7.4
same,"CFB in Worst Stiffness NRS at Week 25, Difference in LS Mean vs placebo",[1]; [3],−1.8
same,Difference in BPI-30 Response in Worst Pain vs placebo (95% CI),[1]; [3],"26% and 26 (4, 42) %"
same,Difference in ORR (vimseltinib vs placebo) by IRR per TVS,[1]; [3],67%
same,Difference in ORR (vimseltinib vs. placebo) by IRR per RECIST 1.1,[1]; [3],40%
same,response rate in active ROM at Week 25,"[1]; 30 mg twice weekly, N=79",48%
same,response rate in PROMIS-PF at Week 25,"[1]; 30 mg twice weekly, N=79, response = change from baseline ≥3",43%
same,response rate in EQ-VAS at Week 25,"[1]; 30 mg twice weekly, N=79, response = change from baseline ≥7",37%
same,difference in response rate in EQ-VAS vs placebo,"[1]; 30 mg twice weekly, Week 25",12%
same,difference in response rate in PROMIS-PF vs placebo,"[1]; 30 mg twice weekly, Week 25",18%
same,difference in response rate in Worst Stiffness NRS vs placebo,"[1]; 30 mg twice weekly, Week 25",24%
same,difference in response rate in active ROM vs placebo,"[1]; 30 mg twice weekly, Week 25",28%
same,median duration of response by IRR per RECIST v1.1,"[1]; 30 mg twice weekly, responders",not reached
same,median duration of response by IRR per TVS,"[1]; 30 mg twice weekly, responders",not reached
same,response rate in Worst Stiffness NRS at Week 25,"[1]; 30 mg twice weekly, response = change from baseline ≤−2",39%
same,BPI-30 response rate in Worst Pain at Week 25,"[1]; 30 mg twice weekly, ≥30% reduction in BPI worst pain NRS and <30% increase in narcotic use",48%
same,"functional and symptomatic improvement across active ROM, PROMIS-PF, worst stiffness NRS, BPI worst pain","[1]; Week 25, versus placebo, FIG. 8",More patients experienced improvement in multiple measures
same,"tumor responses, updated results",[1]; after 6 months,sustained tumor responses
same,Grade 3/4 TEAE eczema,patients with TGCT,10%
same,Grade 3/4 TEAE increased blood CPK,patients with TGCT,35%
same,Grade 3/4 TEAE increased blood creatine phosphokinase (CPK),patients with TGCT,48%
same,grade of the majority of TEAEs,patients with TGCT,grade 1 or 2
same,onset of the majority of the most severe events,patients with TGCT,≤ 12 months
same,tolerability,patients with TGCT,well-tolerated
same,"tolerability, longer follow-up",patients with TGCT,continued to be well tolerated with a manageable safety profile
same,treatment discontinuation due to TEAEs,patients with TGCT,9%
